The results in this text go back to PMC10174618, “Monoterpenoid aryl hydrocarbon receptor allosteric antagonists protect against ultraviolet skin damage in female mice” (Nature Communications, 2023).

Common to all, as to assay: biochemical
Common to all, as to design: KINOMEscan scanMAX active site-directed competition binding assay, percent of control, 468 kinases
What all share (conditions): competition binding, percent of control

The target of one test is CSNK1D (Homo sapiens, UniProt P48730). The procedure, abridged: (§1)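 Single-concentration screen (100 μM S-carvone) in a competition binding panel of 468 human kinases (KINOMEscan scanMAX); results given as percent of control, hit cutoff 35%.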
The next test concerns the target LYN (Homo sapiens, UniProt P07948). The procedure, abridged: as §1
The target of the next test is MARK1 (Homo sapiens, UniProt Q9P0L2). The procedure, abridged:
as §1

The target in another test is T1, JNK1 (Homo sapiens, UniProt P45983).
T1 construct: gene MAPK8
In short, it runs like this:
as §1

Another test concerns the target PIM3 (Homo sapiens, UniProt Q86V86). The procedure, abridged:
as §1

The target of the next test is T2, ADCK4 (Homo sapiens, UniProt Q96D53).
T2 construct: gene COQ8B
T2 sequence (Q96D53 whole entry): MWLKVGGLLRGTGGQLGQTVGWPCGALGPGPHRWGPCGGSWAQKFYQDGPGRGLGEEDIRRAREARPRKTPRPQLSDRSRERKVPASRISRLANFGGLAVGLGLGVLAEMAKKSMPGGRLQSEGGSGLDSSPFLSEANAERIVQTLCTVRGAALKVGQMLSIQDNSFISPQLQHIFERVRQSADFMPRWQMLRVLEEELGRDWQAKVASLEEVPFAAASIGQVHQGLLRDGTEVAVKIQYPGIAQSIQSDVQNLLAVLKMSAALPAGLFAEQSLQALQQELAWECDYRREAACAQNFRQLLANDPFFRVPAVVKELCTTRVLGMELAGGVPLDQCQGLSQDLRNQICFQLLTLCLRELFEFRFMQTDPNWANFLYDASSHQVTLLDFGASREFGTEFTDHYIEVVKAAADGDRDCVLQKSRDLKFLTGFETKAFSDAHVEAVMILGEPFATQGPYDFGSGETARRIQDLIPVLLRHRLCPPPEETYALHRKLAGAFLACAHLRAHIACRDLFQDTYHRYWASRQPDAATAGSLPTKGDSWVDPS
The procedure, abridged: as §1

The target of a further test is GSK3A (Homo sapiens, UniProt P49840). The procedure, abridged: as §1
For a further test, the target named is DMPK (Homo sapiens, UniProt Q09013). The procedure, abridged:
as §1

The target in another test is STK39 (Homo sapiens, UniProt Q9UEW8). The procedure, abridged:
as §1

Another test addresses PLK3 (Homo sapiens, UniProt Q9H4B4). In short, it runs like this:
as §1

Another test deals with EPHB2 (Homo sapiens, UniProt P29323). In short, it runs like this:
as §1

The next test addresses PRKX (Homo sapiens, UniProt P51817). The procedure, abridged:
as §1

The target in another test is PIK3C2B (Homo sapiens, UniProt O00750). In short, it runs like this: as §1
Another test has as its target FLT3-autoinhibited (Homo sapiens, UniProt P36888). The procedure, abridged: as §1
In another test the target is TXK (Homo sapiens, UniProt P42681). The procedure, abridged: as §1
The target in another test is MKNK1 (Homo sapiens, UniProt Q9BUB5). In short, it runs like this: as §1
For test [1], the target named is T3, RPS6KA5(Kin.Dom.1-N-terminal) (Homo sapiens, UniProt O75582).
T3 construct: Kin.Dom.1-N-terminal
T3 sequence (O75582 whole entry): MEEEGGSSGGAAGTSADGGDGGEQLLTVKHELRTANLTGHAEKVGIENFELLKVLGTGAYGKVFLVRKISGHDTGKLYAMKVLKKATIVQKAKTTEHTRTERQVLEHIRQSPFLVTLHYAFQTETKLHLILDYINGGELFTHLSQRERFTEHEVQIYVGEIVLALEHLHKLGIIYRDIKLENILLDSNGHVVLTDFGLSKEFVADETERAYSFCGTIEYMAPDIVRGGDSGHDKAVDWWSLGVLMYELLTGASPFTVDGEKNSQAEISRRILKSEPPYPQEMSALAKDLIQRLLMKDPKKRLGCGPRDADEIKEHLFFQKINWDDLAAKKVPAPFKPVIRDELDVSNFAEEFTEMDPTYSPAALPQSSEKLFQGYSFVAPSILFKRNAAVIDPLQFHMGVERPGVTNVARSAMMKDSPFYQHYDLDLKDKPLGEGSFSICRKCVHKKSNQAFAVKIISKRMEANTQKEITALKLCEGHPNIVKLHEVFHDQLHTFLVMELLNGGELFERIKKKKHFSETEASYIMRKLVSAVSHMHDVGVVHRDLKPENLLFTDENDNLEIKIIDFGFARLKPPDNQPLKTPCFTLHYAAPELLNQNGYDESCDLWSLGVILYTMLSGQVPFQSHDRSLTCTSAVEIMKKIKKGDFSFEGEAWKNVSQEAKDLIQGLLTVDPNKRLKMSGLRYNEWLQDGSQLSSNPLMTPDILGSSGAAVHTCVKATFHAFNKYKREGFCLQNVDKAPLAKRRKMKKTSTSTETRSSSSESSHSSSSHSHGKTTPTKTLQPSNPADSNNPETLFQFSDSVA
The procedure, abridged:
as §1

In another test the target is EGFR(G719S) (Homo sapiens, UniProt P00533, G719S). The procedure, abridged:
as §1

Another test has as its target T4, RIPK5 (Homo sapiens, UniProt Q6XUX3).
T4 construct: gene DSTYK
The procedure, abridged: as §1

Another test deals with MYO3B (Homo sapiens, UniProt Q8WXR4). In short, it runs like this:
as §1

In another test the target is SRMS (Homo sapiens, UniProt Q9H3Y6). In short, it runs like this: as §1
Chain of SRMS (Q9H3Y6 whole entry): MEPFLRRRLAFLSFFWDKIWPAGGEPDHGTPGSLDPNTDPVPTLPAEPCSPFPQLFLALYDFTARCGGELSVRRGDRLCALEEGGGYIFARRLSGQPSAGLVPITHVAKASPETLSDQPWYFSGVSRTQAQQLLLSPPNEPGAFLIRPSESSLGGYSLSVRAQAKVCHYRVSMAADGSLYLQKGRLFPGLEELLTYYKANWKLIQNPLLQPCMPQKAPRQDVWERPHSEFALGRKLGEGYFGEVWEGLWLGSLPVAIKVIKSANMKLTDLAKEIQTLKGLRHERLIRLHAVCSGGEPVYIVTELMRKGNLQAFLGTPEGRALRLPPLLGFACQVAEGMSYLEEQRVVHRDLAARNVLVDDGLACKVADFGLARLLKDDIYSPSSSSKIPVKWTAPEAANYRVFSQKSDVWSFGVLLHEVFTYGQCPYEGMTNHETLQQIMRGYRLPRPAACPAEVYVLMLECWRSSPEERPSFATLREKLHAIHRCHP
The target in another test is RET(V804L) (Homo sapiens, UniProt P07949, V804L). In short, it runs like this:
as §1

Chain of EPHB2 (P29323 whole entry): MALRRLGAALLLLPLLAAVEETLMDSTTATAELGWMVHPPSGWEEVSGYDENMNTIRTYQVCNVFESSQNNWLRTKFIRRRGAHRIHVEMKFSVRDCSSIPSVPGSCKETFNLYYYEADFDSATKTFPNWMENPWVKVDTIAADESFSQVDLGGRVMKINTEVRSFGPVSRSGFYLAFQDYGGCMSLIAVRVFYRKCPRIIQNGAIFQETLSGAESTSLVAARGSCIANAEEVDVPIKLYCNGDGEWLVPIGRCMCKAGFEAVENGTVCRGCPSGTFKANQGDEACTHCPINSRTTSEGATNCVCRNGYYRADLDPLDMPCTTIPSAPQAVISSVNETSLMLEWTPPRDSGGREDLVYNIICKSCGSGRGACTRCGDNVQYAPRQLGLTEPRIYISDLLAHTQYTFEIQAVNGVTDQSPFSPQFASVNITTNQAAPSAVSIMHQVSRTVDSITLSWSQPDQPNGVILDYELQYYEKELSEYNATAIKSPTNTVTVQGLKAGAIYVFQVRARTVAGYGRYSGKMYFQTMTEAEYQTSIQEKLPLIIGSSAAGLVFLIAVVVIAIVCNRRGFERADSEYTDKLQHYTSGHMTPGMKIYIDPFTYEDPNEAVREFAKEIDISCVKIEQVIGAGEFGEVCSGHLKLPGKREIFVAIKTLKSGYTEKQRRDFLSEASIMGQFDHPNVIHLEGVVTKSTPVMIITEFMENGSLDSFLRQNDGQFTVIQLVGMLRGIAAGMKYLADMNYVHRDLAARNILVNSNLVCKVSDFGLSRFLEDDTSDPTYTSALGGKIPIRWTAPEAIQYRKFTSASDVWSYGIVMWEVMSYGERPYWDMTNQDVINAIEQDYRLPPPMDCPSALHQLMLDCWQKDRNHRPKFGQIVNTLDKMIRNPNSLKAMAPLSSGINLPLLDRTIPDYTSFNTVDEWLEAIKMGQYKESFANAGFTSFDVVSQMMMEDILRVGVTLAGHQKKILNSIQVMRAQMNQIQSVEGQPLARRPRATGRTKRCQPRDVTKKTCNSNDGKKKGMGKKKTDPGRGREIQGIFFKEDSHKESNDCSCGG
Chain of DMPK (Q09013 whole entry): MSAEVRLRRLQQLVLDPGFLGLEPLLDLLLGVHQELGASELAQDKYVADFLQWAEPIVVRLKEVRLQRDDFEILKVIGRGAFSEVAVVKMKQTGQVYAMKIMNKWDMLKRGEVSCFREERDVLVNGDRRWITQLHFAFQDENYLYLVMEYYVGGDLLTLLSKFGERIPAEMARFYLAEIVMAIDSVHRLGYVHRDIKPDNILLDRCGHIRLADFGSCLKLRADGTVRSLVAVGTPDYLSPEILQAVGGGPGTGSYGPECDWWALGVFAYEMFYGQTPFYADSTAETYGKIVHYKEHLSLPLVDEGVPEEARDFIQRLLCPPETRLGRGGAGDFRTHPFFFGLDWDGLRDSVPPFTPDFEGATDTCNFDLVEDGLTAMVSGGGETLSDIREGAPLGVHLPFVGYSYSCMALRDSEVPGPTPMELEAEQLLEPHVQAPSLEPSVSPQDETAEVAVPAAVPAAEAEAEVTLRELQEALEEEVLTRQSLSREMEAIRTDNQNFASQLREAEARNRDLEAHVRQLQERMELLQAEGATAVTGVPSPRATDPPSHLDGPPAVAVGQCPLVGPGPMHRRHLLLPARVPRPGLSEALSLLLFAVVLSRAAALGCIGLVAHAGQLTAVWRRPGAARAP
Chain of EGFR(G719S) (P00533 whole entry G719S): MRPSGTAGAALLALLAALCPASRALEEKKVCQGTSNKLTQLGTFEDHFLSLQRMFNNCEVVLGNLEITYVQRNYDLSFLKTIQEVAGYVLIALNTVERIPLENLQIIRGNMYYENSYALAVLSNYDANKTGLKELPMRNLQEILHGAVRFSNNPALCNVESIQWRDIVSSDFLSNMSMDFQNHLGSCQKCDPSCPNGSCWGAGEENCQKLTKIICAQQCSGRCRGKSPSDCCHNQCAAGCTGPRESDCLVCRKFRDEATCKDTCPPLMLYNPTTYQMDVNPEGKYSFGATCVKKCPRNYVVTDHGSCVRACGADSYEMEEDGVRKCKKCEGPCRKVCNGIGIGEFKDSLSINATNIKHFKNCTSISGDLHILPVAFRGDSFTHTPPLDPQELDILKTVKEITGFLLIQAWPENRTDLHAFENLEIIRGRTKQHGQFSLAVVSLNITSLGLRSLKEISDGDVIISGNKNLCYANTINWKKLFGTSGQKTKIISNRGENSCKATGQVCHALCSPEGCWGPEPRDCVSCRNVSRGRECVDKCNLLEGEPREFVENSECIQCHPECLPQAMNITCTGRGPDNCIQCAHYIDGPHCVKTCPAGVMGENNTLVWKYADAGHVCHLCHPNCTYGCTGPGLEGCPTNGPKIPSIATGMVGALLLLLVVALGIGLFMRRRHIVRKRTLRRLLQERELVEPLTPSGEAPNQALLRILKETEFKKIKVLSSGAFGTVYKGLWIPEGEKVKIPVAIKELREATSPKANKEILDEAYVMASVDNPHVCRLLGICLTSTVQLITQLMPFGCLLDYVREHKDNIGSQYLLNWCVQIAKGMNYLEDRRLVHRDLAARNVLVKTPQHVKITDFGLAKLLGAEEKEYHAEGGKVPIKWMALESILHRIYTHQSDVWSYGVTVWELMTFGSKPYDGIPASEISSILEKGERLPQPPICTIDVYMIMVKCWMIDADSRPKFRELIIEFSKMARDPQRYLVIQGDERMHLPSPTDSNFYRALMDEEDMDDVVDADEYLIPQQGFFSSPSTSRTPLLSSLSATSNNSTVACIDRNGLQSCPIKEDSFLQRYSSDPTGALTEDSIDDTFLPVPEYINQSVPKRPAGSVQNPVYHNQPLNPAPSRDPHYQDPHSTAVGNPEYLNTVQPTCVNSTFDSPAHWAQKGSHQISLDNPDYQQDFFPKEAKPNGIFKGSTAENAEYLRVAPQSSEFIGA

As for `C=C(C)[C@H]1CC=C(C)C(=O)C1` [S-carvone], the remaining binding at 100 µM came out at 68% on CSNK1D; 72% at LYN; 85% at MARK1; 80% on JNK1; 72% at PIM3; 92% on ADCK4. Further, the remaining binding at 100 µM stood at 100% on GSK3A; 94% on DMPK; 80% at STK39; 69% on PLK3; 66% on EPHB2; 100% on PRKX. The remaining binding at 100 µM at PIK3C2B amounted to 72%; at FLT3-autoinhibited, 67%; at TXK, 89%; on MKNK1, 62%; in test [1], 84%; at EGFR(G719S), 72%. Further, the remaining binding at 100 µM on RIPK5 was 61%; on MYO3B it was 94%; at SRMS it was 76%; on RET(V804L), 87%.
